Laboratory results: the NIST ThermoML archive (doi:10.1021/je0601208)
± gives the expanded uncertainty stated by the source.

Assays:
[1] = refractive index (Na D-line) (dimensionless); xn = mol fraction of the nth substance listed; conditions: 100.5 kPa, Liquid, Standard Abbe refractometry
[2] = xn = mol fraction of the nth substance listed

CCOC(=O)c1ccccc1 [ethyl benzoate] + CCO
Conditions | refractive index, 288.15 K | refractive index, 298.15 K | refractive index, 308.15 K | refractive index, 318.15 K | surface tension liquid-gas, 288.15 K [mN/m] | surface tension liquid-gas, 298.15 K [mN/m] | surface tension liquid-gas, 308.15 K [mN/m] | surface tension liquid-gas, 318.15 K [mN/m]
[1], x1 = 0.05 | 1.38111 ± 0.00032 | 1.37682 ± 0.00032 | 1.37237 ± 0.00032 | 1.36815 ± 0.00032 | – | – | – | –
[1], x1 = 0.1 | 1.39597 ± 0.00032 | 1.39165 ± 0.00032 | 1.38717 ± 0.00032 | 1.38279 ± 0.00032 | – | – | – | –
[1], x1 = 0.15 | 1.40895 ± 0.00032 | 1.40452 ± 0.00032 | 1.39997 ± 0.00032 | 1.39551 ± 0.00032 | – | – | – | –
[1], x1 = 0.2 | 1.42035 ± 0.00032 | 1.41593 ± 0.00032 | 1.41131 ± 0.00032 | 1.40679 ± 0.00032 | – | – | – | –
[1], x1 = 0.25 | 1.43037 ± 0.00032 | 1.42598 ± 0.00032 | 1.42135 ± 0.00032 | 1.41678 ± 0.00032 | – | – | – | –
[1], x1 = 0.3 | 1.43936 ± 0.00032 | 1.43498 ± 0.00032 | 1.43033 ± 0.00032 | 1.42576 ± 0.00032 | – | – | – | –
[1], x1 = 0.35 | 1.44743 ± 0.00032 | 1.44303 ± 0.00032 | 1.4384 ± 0.00032 | 1.43378 ± 0.00032 | – | – | – | –
[1], x1 = 0.4 | 1.45479 ± 0.00032 | 1.45038 ± 0.00032 | 1.44571 ± 0.00032 | 1.44105 ± 0.00032 | – | – | – | –
[1], x1 = 0.45 | 1.46145 ± 0.00032 | 1.45702 ± 0.00032 | 1.45236 ± 0.00032 | 1.44765 ± 0.00032 | – | – | – | –
[1], x1 = 0.5 | 1.4675 ± 0.00032 | 1.46309 ± 0.00032 | 1.45841 ± 0.00032 | 1.45369 ± 0.00032 | – | – | – | –
[1], x1 = 0.55 | 1.47305 ± 0.00032 | 1.46865 ± 0.00032 | 1.46393 ± 0.00032 | 1.45918 ± 0.00032 | – | – | – | –
[1], x1 = 0.6 | 1.47816 ± 0.00032 | 1.47372 ± 0.00032 | 1.46901 ± 0.00032 | 1.46424 ± 0.00032 | – | – | – | –
[1], x1 = 0.65 | 1.48283 ± 0.00032 | 1.4784 ± 0.00032 | 1.47368 ± 0.00032 | 1.4689 ± 0.00032 | – | – | – | –
[1], x1 = 0.7 | 1.48715 ± 0.00032 | 1.48273 ± 0.00032 | 1.47801 ± 0.00032 | 1.47321 ± 0.00032 | – | – | – | –
[1], x1 = 0.75 | 1.49115 ± 0.00032 | 1.48675 ± 0.00032 | 1.48203 ± 0.00032 | 1.47724 ± 0.00032 | – | – | – | –
[1], x1 = 0.8 | 1.49488 ± 0.00032 | 1.49047 ± 0.00032 | 1.48578 ± 0.00032 | 1.48098 ± 0.00032 | – | – | – | –
[1], x1 = 0.85 | 1.4984 ± 0.00032 | 1.49401 ± 0.00032 | 1.48929 ± 0.00032 | 1.48449 ± 0.00032 | – | – | – | –
[1], x1 = 0.9 | 1.5017 ± 0.00032 | 1.49731 ± 0.00032 | 1.49257 ± 0.00032 | 1.48776 ± 0.00032 | – | – | – | –
[1], x1 = 0.95 | 1.50477 ± 0.00032 | 1.50037 ± 0.00032 | 1.49565 ± 0.00032 | 1.49086 ± 0.00032 | – | – | – | –
[1], x1 = 1 | 1.5076 ± 0.00032 | 1.50328 ± 0.00032 | 1.49863 ± 0.00032 | 1.49391 ± 0.00032 | – | – | – | –
[2], x1 = 0.05 | – | – | – | – | 23.9 ± 0.6 | 23.1 ± 0.6 | 22.2 ± 0.6 | 21.3 ± 0.6
[2], x1 = 0.1 | – | – | – | – | 24.7 ± 0.6 | 23.9 ± 0.6 | 23 ± 0.6 | 22.1 ± 0.6
[2], x1 = 0.15 | – | – | – | – | 25.5 ± 0.6 | 24.6 ± 0.6 | 23.7 ± 0.6 | 22.8 ± 0.6
[2], x1 = 0.2 | – | – | – | – | 26.2 ± 0.6 | 25.3 ± 0.6 | 24.4 ± 0.6 | 23.5 ± 0.6
[2], x1 = 0.25 | – | – | – | – | 26.9 ± 0.6 | 26 ± 0.6 | 25 ± 0.6 | 24.1 ± 0.6
[2], x1 = 0.3 | – | – | – | – | 27.5 ± 0.6 | 26.6 ± 0.6 | 25.6 ± 0.6 | 24.7 ± 0.6
[2], x1 = 0.35 | – | – | – | – | 28.1 ± 0.6 | 27.2 ± 0.6 | 26.1 ± 0.6 | 25.3 ± 0.6
[2], x1 = 0.4 | – | – | – | – | 28.7 ± 0.6 | 27.7 ± 0.6 | 26.7 ± 0.6 | 25.8 ± 0.6
[2], x1 = 0.45 | – | – | – | – | 29.2 ± 0.6 | 28.3 ± 0.6 | 27.2 ± 0.6 | 26.3 ± 0.6
[2], x1 = 0.5 | – | – | – | – | 29.7 ± 0.7 | 28.7 ± 0.6 | 27.7 ± 0.6 | 26.8 ± 0.6
[2], x1 = 0.55 | – | – | – | – | 30.2 ± 0.7 | 29.2 ± 0.6 | 28.1 ± 0.6 | 27.3 ± 0.6
[2], x1 = 0.6 | – | – | – | – | 30.7 ± 0.7 | 29.7 ± 0.7 | 28.6 ± 0.6 | 27.8 ± 0.6
[2], x1 = 0.65 | – | – | – | – | 31.2 ± 0.7 | 30.2 ± 0.7 | 29.1 ± 0.6 | 28.3 ± 0.6
[2], x1 = 0.7 | – | – | – | – | 31.8 ± 0.7 | 30.8 ± 0.7 | 29.6 ± 0.7 | 28.8 ± 0.6
[2], x1 = 0.75 | – | – | – | – | 32.3 ± 0.7 | 31.3 ± 0.7 | 30.1 ± 0.7 | 29.3 ± 0.7
[2], x1 = 0.8 | – | – | – | – | 32.9 ± 0.7 | 31.9 ± 0.7 | 30.6 ± 0.7 | 29.8 ± 0.7
[2], x1 = 0.85 | – | – | – | – | 33.6 ± 0.7 | 32.5 ± 0.7 | 31.2 ± 0.7 | 30.4 ± 0.7
[2], x1 = 0.9 | – | – | – | – | 34.3 ± 0.7 | 33.2 ± 0.7 | 31.9 ± 0.7 | 31 ± 0.7
[2], x1 = 0.95 | – | – | – | – | 35 ± 0.7 | 33.9 ± 0.7 | 32.6 ± 0.7 | 31.8 ± 0.7
[2], x1 = 1 | – | – | – | – | 35.7 ± 0.7 | 34.6 ± 0.7 | 33.3 ± 0.7 | 32.5 ± 0.7
